Structures can show the parent of a compound that is named as a salt.
Assay: Storage stability of reagent 7 and its Boc and salt forms
Type: physicochemical
Excerpt: The synthesis of reagent 7-salt is described in Scheme 1. The phenolic oxygen of Boc-protected NMT (N-methyltyramine) was deprotonated with NaH and treated with BrCF2CF2Br (Halon 2402) giving the bromide 4, which was converted to corresponding fluoroalkylsilane 5. […] For that reason, it was generated in situ from 7-salt by addition of base in all subsequent syntheses.

**Q.** With `CNCCc1ccc(OC(F)(F)C(F)(F)I2OC(C)(C)c3ccccc32)cc1` [Reagent 7, 2-(4-(2-(3,3-Dimethyl-1λ^3-benzo[d][1,2]iodaoxol-1 (3H)-yl)-1,1,2,2-tetrafluoroethoxy)phenyl)-N-methylethan-1-amine] as the compound, how does the storage stability (isolated deprotected reagent, stored in a freezer) read?
**A.** The storage stability was “decomposed rapidly”.

**Q.** For `CN(CCc1ccc(OC(F)(F)C(F)(F)I2OC(C)(C)c3ccccc32)cc1)C(=O)OC(C)(C)C` [Reagent 7-Boc, tert-Butyl (4-(2-(3,3-dimethyl-1λ^3-benzo[d][1,2]iodaoxol-1 (3H)-yl)-1,1,2,2-tetrafluoroethoxy)phenethyl)-(methyl)carbamate], which storage stability (brown oil, at −20° C.) is on record?
**A.** Its storage stability is “stable for at least for six months”.

**Q.** Which storage stability (crystalline, at room temperature) does the source give for `CNCCc1ccc(OC(F)(F)C(F)(F)I2OC(C)(C)c3ccccc32)cc1` [Reagent 7-salt, 3,3-Dimethyl-1-(1,1,2,2-tetrafluoro-2-(4-(2-(methylammonio)ethyl)phenoxy)ethyl)-2,3-dihydro-1H-1λ^3-benzo[d][1,2]iodaoxol-2-ium bis(trifluoroacetate)] here?
**A.** Its storage stability is “appeared stable”.

From patent US10669250B2, “Hypervalent iodine CF2CF2X reagents and their use” (ETH Zurich, priority 2014, dated 2020)
